Type in all cases: physicochemical
Series [1] in a line: Light resistance test of printed images with xenon lamp. Conditions: grade of color difference ΔE; ink with 6 parts dye on glossy photo paper; xenon lamp 0.36 W/m^2, 60% RH, 24° C., 50 h. From the text:
Prepare the ink composition according to the formula described in Table 1 containing the products obtained in the above embodiment as the magenta colorant, and filter the ink composition with a […] membrane filter to obtain the aqueous magenta ink composition of the present invention. Add triethanolamine to adjust the ink composition pH to 8˜10 and add deionized water to make the total volume to reach 100 parts by weight.
Use an ink-jet printer (Epson 270 manufactured by Epson Company), glossy photo paper (Epson) and the above described ink compositions for ink-jet printing.
Irradiate the printed glossy photo paper manufactured by Canon and Epson with Xenon-lamp Weathering Test Chamber ZG-P (manufactured by China Surui Company) at 60% RH and 24° C. with illuminance of 0.36 W/m^2 for 50 h, and check the color difference (ΔE) before and after the test. The color difference (ΔE) is calculated from the differences of values of L*, a*, b* before and after the test in the above described color measurement system (Unterlab) by the followings formula: ΔE=((difference of L*)^2+(difference of a*)^2+(difference of b*)^2)^1/2.
Three grades will be divided for the evaluation based on the following benchmark: […]

A short description of series [2]: Gas (ozone) resistance of the printed images. The conditions noted are these: grade of color difference ΔE; 40 ppm ozone, 60% RH, 24° C., 6 h. From the text: Prepare the ink composition according to the formula described in Table 1 containing the products obtained in the above embodiment as the magenta colorant, and filter the ink composition with a […] membrane filter to obtain the aqueous magenta ink composition of the present invention. Add triethanolamine to adjust the ink composition pH to 8˜10 and add deionized water to make the total volume to reach 100 parts by weight. Use an ink-jet printer (Epson 270 manufactured by Epson Company), glossy photo paper (Epson) and the above described ink compositions for ink-jet printing. Place the printed images in the Ozone Weathering Test Chamber (manufactured by China Surui Company) at 40 ppm ozone, 60% RH and 24° C. for 6 h. Calculate the color difference (ΔE) before and after the test in the same manner as described in (1) above and evaluate it in 3 grades based on the following benchmark: [table]

A short description of series [3]: Evaluation of water solubility of the dye. Conditions: solubility of the dye in water. The text has this: (D) Evaluation of Water Solubility of the Dye (g/100 g Water)
A short description of series [4]: Evaluation of long-term stability of the dye in aqueous solvent systems. Further details: key: ∘: No precipitation; Δ: Slight precipitation; x: Notable. The conditions noted are these: 20 parts dye, 70 parts water, 10 parts ethylene glycol; 50° C. 7 d, then 0° C. 7 d; precipitation on filtering. The method, then: Heat and dissolve the system consisting of 20 parts of dyes, 70 parts of water and 10 parts of ethylene glycol; after the solution cools down, store it airtight at a constant temperature of 50° C. for 7 d; cool it to 0° C. and store it at the same temperature for 7 d; filter the solution and evaluate it in 3 grades based on the following benchmark: […]

On to `O=C([O-])CCCS(=O)(=O)c1ccc(S(=O)(=O)[O-])c(Nc2cc(S(=O)(=O)[O-])c3[nH]c(=O)c(C(=O)[O-])c4c3c2C(=O)c2ccccc2-4)c1.[Na+].[Na+].[Na+].[Na+]` [Dm1], for which the “UV resistance of printed images” value in series [1] is reported as “∘ (ΔE < 10)”. In addition, the “Ozone resistance of printed images” value in series [2] was “∘ (ΔE < 10)”. Besides, the “Water solubility of the dye” value in series [3] is “∘ (The solubility of the dye in water >30)”. The “Long-term stability of the dye in aqueous solvent systems” value (shortened to “Long-term stability of the dye”) in series [4] was “∘”.

For `O=C([O-])CCCS(=O)(=O)c1cc(S(=O)(=O)[O-])c(Nc2cc(S(=O)(=O)[O-])c3[nH]c(=O)c(C(=O)OCc4ccccc4)c4c3c2C(=O)c2ccccc2-4)c(S(=O)(=O)[O-])c1.[Na+].[Na+].[Na+].[Na+]` [Dp4], the “UV resistance of printed images” value in series [1] was “∘ (ΔE < 10)”. In addition, the “Ozone resistance of printed images” value in series [2] is “∘ (ΔE < 10)”. Besides, the “Water solubility of the dye” value in series [3] is recorded as “∘ (The solubility of the dye in water >30)”. For the same molecule, the “Long-term stability of the dye” value in series [4] is “∘”.

Regarding `Cc1ccc(COC(=O)c2c3c4c(c(Nc5cc(S(=O)(=O)CCCC(=O)[O-])ccc5S(=O)(=O)[O-])cc(S(=O)(=O)[O-])c4[nH]c2=O)C(=O)c2ccccc2-3)cc1.[Na+].[Na+].[Na+]` [Dm5], the “UV resistance of printed images” value in series [1] is “∘ (ΔE < 10)”. Also, in series [2], the “Ozone resistance of printed images” value is “∘ (ΔE < 10)”. The “Water solubility of the dye” value in series [3] is “∘ (The solubility of the dye in water >30)”. In addition, the “Long-term stability of the dye” value in series [4] is “∘”.

Consider `Cn1c(=O)c(C(=O)OCc2cccc3ccccc23)c2c3c(c(Nc4ccc(S(=O)(=O)[O-])cc4S(=O)(=O)[O-])ccc31)C(=O)c1ccccc1-2.[Na+].[Na+]` [Dye2, reference compound], for which the “UV resistance of printed images” value in series [1] was “∘ (ΔE < 10)”. In addition, the “Ozone resistance of printed images” value in series [2] is “∘ (ΔE < 10)”. Moreover, in series [3], the “Water solubility of the dye” value is “Δ (The solubility of the dye in water >15-20)”. The “Long-term stability of the dye” value in series [4] is recorded as “Δ”.

In the case of `O=C([O-])CCCS(=O)(=O)c1ccc(S(=O)(=O)[O-])c(Nc2cc(S(=O)(=O)[O-])c3[nH]c(=O)c(C(=O)OCc4cccc([N+](=O)[O-])c4)c4c3c2C(=O)c2ccccc2-4)c1.[Na+].[Na+].[Na+]` [Dm7], the “UV resistance of printed images” value in series [1] was “∘ (ΔE < 10)”. Besides, the “Ozone resistance of printed images” value in series [2] is recorded as “∘ (ΔE < 10)”. The “Water solubility of the dye” value in series [3] is listed as “∘ (The solubility of the dye in water >30)”. Moreover, the “Long-term stability of the dye” value in series [4] was “∘”.

Consider `O=C([O-])CCCS(=O)(=O)c1ccc(S(=O)(=O)[O-])c(Nc2cc(S(=O)(=O)[O-])c3[nH]c(=O)c(C(=O)OCc4ccccc4)c4c3c2C(=O)c2ccccc2-4)c1.[Na+].[Na+].[Na+]` [Dm3], for which the “UV resistance of printed images” value in series [1] is “∘ (ΔE < 10)”. Also, the “Ozone resistance of printed images” value in series [2] is “∘ (ΔE < 10)”. Besides, in series [3], the “Water solubility of the dye” value is “∘ (The solubility of the dye in water >30)”. In series [4], the “Long-term stability of the dye” value is reported as “∘”.

With `O=C([O-])CCCS(=O)(=O)c1cc(S(=O)(=O)[O-])c(Nc2cc(S(=O)(=O)[O-])c3[nH]c(=O)c(C(=O)OCc4cccc(Cl)c4)c4c3c2C(=O)c2ccccc2-4)c(S(=O)(=O)[O-])c1.[Na+].[Na+].[Na+].[Na+]` [Dp10], in series [1], the “UV resistance of printed images” value is on record as “∘ (ΔE < 10)”. The “Ozone resistance of printed images” value in series [2] is given as “∘ (ΔE < 10)”. The “Water solubility of the dye” value in series [3] is on record as “∘ (The solubility of the dye in water >30)”. For the same molecule, the “Long-term stability of the dye” value in series [4] is “∘”.

On to `O=S(=O)([O-])c1cc(Nc2nc(Nc3ccc(/C=C/c4ccc(Nc5nc(Nc6cc(S(=O)(=O)[O-])cc7cc(S(=O)(=O)[O-])c(N=Nc8ccccc8)c(O)c67)nc(N6CCOCC6)n5)cc4S(=O)(=O)[O-])c(S(=O)(=O)[O-])c3)nc(N3CCOCC3)n2)c2c(O)c(N=Nc3ccccc3)c(S(=O)(=O)[O-])cc2c1.[Na+].[Na+].[Na+].[Na+].[Na+].[Na+]` [C.I. direct red 227, reference compound], for which the “UV resistance of printed images” value in series [1] is listed as “x (ΔE > 20)”. In addition, in series [2], the “Ozone resistance of printed images” value was “x (ΔE > 20)”. The “Water solubility of the dye” value in series [3] was “x (The solubility of the dye in water <15)”. The “Long-term stability of the dye” value in series [4] was “Δ”.

For `O=C([O-])CCCS(=O)(=O)c1cc(S(=O)(=O)[O-])c(Nc2cc(S(=O)(=O)[O-])c3[nH]c(=O)c(C(=O)OCc4cccc5ccccc45)c4c3c2C(=O)c2ccccc2-4)c(S(=O)(=O)[O-])c1.[Na+].[Na+].[Na+].[Na+]` [Dp17], in series [1], the “UV resistance of printed images” value is listed as “∘ (ΔE < 10)”. In series [2], the “Ozone resistance of printed images” value is on record as “∘ (ΔE < 10)”. The “Water solubility of the dye” value in series [3] is “Δ (The solubility of the dye in water >15-20)”. For the same molecule, the “Long-term stability of the dye” value in series [4] was “∘”.

For the molecule `O=C([O-])CCCS(=O)(=O)c1cc(S(=O)(=O)[O-])c(Nc2cc(S(=O)(=O)[O-])c3[nH]c(=O)c(C(=O)[O-])c4c3c2C(=O)c2ccccc2-4)c(S(=O)(=O)[O-])c1.[Na+].[Na+].[Na+].[Na+].[Na+]` [Dp2], the “UV resistance of printed images” value in series [1] is recorded as “∘ (ΔE < 10)”. The “Ozone resistance of printed images” value in series [2] was “∘ (ΔE < 10)”. Moreover, in series [3], the “Water solubility of the dye” value is recorded as “∘ (The solubility of the dye in water >30)”. In series [4], the “Long-term stability of the dye” value was “∘”.

As for `O=C(Nc1cc(S(=O)(=O)[O-])cc2cc(S(=O)(=O)[O-])c(N=Nc3ccc4cc(S(=O)(=O)CCOS(=O)(=O)[O-])ccc4c3S(=O)(=O)[O-])c(O)c12)c1ccccc1.[Na+].[Na+].[Na+].[Na+]` [C.I. reactive red 180, reference compound], the “UV resistance of printed images” value in series [1] is reported as “x (ΔE > 20)”. In addition, the “Ozone resistance of printed images” value in series [2] is “x (ΔE > 20)”. Moreover, the “Long-term stability of the dye” value in series [4] is given as “Δ”.

For the molecule `O=C([O-])CCCS(=O)(=O)c1cc(S(=O)(=O)[O-])c(Nc2cc(S(=O)(=O)[O-])c3[nH]c(=O)c(C(=O)OCc4cccc(S(=O)(=O)[O-])c4)c4c3c2C(=O)c2ccccc2-4)c(S(=O)(=O)[O-])c1.[Na+].[Na+].[Na+].[Na+].[Na+]` [Dp14], the “UV resistance of printed images” value in series [1] was “∘ (ΔE < 10)”. In addition, in series [2], the “Ozone resistance of printed images” value was “∘ (ΔE < 10)”. In series [3], the “Water solubility of the dye” value was “∘ (The solubility of the dye in water >30)”. Besides, the “Long-term stability of the dye” value in series [4] is listed as “∘”.

For the origin of these results see patent publication US9011589B2, “Magenta dyes and their preparation methods and applications” (Dalian University of Technology, priority 2012, dated 2015).
